Data reported in ChEMBL document CHEMBL1201862, “PubChem BioAssay data set” (2004).
Calls of active or inactive are those of the source.

Assays:
[1] = molecular target: DNA dC->dU-editing enzyme APOBEC-3A (Homo sapiens, UniProt P31941); experiment: Dose Response confirmation of small molecule APOBEC3A DNA Deaminase Inhibitors via a fluorescence-based single-stranded DNA deaminase assay. [Related pubchem assays (depositor defined):AID493011, AID493024]; assay type: functional
[2] = molecular target: DNA dC->dU-editing enzyme APOBEC-3G (Homo sapiens, UniProt Q9HC16); assay type: functional;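 also: Dose-response counterscreen measuring inhibition of APOBEC3G DNA deaminase activity, run while confirming APOBEC3A inhibitors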
H9c2 = experiment: cells; assay type: functional, cell-based; details: Rattus norvegicus, H9c2, Myocardium;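 also: confirmatory concentration-response retest of ultra-high-throughput screening hits for modulation of myocardial damage; cell death induced by hydrogen peroxide oxidative stress; compound pretreatment for 60 min then peroxide exposure for 2 h; potency is for protecting the cells against peroxide damage rather than for killing them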
Melanocortin receptor 4 = Melanocortin receptor 4 (Homo sapiens, UniProt P32245); assay type: functional, cell-based;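 also: Cell-based assay with luminescence read-out, confirmatory dose-response testing for agonist activity of biased ligands at MC4R; human U2OS cells with tagged receptor and beta-arrestin; potency of agonists that increase receptor coupling to beta-arrestin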
Coagulation factor XII = molecular target: T1, Coagulation factor XII (Homo sapiens, UniProt P00748); assay type: functional;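 also: activated factor XIIa alpha cleaving a fluorogenic AMC peptide substrate; inhibitor potency from loss of enzyme activity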
T1 sequence (P00748 whole entry): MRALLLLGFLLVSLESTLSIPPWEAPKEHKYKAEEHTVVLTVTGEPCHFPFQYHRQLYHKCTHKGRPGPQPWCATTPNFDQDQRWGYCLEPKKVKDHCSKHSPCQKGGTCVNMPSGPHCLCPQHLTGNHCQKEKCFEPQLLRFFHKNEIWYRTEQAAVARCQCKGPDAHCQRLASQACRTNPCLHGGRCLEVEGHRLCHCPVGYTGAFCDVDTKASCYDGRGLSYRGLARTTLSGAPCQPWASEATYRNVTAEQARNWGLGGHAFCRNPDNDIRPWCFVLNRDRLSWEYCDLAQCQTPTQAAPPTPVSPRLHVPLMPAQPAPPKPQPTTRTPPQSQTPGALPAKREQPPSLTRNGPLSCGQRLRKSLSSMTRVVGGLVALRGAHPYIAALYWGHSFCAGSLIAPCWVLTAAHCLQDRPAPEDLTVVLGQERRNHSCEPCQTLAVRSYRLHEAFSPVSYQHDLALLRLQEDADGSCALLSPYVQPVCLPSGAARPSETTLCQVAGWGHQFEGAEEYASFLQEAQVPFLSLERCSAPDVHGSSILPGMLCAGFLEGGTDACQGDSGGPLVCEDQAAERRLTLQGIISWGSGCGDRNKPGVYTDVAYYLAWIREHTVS

[3] = molecular target: T2, Low molecular weight phosphotyrosine protein phosphatase (Homo sapiens, UniProt P24666); assay type: functional; details: read-out: IC50_Mean;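 also: Dose-response confirmation assay measuring inhibition of LMPTP enzyme activity by fluorescence intensity read-out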
T2 sequence (P24666 whole entry): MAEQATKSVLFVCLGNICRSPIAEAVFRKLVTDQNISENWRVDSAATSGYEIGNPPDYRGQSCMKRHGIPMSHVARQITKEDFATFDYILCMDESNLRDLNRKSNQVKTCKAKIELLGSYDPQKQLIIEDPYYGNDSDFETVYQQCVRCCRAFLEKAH

[4] = molecular target: Ras and Rab interactor 1/Tyrosine-protein kinase ABL1 (Homo sapiens, UniProt P00519+Q13671); assay type: functional;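 also: biochemical TR-FRET dose-response test measuring inhibition of binding between Rin1 and Abl proteins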
[5] = HEp-2 cell cytotoxicity, dose response, cytotoxicity control for RSV inhibitor project, HTS (AID 2410); assay type: functional; details: human respiratory syncytial virus

Sequence of DNA dC->dU-editing enzyme APOBEC-3G (Q9HC16 whole entry): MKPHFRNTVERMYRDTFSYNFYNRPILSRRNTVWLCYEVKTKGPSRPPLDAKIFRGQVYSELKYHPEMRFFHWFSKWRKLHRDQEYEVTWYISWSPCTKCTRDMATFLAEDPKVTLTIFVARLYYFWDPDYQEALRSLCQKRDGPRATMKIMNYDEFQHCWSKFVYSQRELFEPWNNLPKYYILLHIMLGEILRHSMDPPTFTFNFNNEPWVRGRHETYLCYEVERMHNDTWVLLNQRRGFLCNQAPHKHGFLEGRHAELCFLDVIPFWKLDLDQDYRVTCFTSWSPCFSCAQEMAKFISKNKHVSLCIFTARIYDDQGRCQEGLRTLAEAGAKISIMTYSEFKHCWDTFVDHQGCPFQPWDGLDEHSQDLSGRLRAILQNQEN
Sequence of DNA dC->dU-editing enzyme APOBEC-3A (P31941 whole entry): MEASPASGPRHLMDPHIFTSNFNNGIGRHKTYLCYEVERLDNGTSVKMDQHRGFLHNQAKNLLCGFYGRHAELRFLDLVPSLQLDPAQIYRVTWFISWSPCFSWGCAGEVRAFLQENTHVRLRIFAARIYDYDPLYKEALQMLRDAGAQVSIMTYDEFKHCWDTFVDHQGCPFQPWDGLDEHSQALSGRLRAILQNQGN
Sequence of Ras and Rab interactor 1/Tyrosine-protein kinase ABL1 (P00519 whole entry): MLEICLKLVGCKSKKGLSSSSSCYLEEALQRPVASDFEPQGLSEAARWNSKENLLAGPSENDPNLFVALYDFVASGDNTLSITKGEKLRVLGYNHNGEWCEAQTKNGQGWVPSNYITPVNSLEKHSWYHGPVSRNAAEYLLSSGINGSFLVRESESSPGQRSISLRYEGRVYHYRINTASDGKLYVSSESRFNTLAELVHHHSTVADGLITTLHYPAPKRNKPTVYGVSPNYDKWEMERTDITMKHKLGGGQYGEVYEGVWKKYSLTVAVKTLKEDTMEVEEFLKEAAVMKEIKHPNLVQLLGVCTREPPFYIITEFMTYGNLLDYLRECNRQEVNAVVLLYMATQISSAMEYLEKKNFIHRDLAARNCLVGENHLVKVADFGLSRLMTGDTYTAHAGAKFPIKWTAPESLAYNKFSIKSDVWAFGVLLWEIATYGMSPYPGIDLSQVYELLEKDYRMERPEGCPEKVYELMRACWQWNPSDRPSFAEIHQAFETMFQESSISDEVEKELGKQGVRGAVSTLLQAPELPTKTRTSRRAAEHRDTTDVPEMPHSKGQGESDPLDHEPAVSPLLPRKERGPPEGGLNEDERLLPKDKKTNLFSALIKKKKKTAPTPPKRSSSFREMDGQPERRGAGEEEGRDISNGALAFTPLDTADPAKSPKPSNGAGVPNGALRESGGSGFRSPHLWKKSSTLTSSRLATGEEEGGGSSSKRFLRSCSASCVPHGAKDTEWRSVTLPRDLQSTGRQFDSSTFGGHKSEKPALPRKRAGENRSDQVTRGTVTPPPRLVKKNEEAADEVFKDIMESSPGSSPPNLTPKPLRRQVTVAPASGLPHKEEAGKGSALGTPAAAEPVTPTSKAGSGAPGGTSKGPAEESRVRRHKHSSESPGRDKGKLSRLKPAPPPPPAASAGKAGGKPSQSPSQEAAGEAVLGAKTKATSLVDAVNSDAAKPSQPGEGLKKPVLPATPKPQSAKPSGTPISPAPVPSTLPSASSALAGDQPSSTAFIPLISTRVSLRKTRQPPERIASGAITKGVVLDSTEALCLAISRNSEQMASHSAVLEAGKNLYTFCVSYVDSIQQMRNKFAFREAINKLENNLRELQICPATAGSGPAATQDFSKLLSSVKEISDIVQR
Sequence of Ras and Rab interactor 1/Tyrosine-protein kinase ABL1 (Q13671 whole entry): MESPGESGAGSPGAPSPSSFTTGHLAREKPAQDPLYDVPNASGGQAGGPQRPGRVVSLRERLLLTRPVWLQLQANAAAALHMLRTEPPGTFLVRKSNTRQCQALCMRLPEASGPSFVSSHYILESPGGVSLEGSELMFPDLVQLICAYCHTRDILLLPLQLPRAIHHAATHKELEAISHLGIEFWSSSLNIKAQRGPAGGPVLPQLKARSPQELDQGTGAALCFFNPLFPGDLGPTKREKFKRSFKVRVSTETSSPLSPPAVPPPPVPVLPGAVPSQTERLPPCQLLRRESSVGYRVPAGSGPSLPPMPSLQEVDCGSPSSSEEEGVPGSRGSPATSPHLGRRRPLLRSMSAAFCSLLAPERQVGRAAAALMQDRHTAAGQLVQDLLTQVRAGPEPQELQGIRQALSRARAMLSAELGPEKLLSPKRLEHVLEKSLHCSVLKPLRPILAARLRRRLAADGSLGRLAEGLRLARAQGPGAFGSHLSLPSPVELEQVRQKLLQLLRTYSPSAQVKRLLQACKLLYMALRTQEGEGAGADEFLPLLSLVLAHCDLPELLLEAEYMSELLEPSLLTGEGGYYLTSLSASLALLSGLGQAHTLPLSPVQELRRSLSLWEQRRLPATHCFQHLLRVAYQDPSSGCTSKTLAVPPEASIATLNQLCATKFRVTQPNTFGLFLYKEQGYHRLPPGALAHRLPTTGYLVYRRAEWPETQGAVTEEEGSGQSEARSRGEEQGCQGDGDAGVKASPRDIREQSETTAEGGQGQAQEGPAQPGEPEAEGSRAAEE
Sequence of Melanocortin receptor 4 (P32245 whole entry): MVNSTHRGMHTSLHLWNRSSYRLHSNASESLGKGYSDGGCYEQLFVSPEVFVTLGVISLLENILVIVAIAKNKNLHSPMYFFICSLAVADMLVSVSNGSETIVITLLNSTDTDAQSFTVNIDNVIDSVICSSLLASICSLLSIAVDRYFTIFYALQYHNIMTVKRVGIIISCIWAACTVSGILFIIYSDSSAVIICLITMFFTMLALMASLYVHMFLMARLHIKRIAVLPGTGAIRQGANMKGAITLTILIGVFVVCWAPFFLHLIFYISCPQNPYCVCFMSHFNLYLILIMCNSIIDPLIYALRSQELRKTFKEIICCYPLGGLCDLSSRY

With `CCN1CCN(S(=O)(=O)c2ccc(Cl)c(C(=O)Nc3cc(Cl)ccc3N3CCOCC3)c2)CC1` the IC50 [1] was 5.15 µM (active) and the IC50 [2] was 5.78 µM (active).
With `COCCN(C(=O)COC(=O)CNC(=O)c1cccs1)c1c(N)n(Cc2ccccc2)c(=O)[nH]c1=O` the IC50 [1] was 8.35 µM (active) and the IC50 [2] was 10.8 µM (active).
In the case of `CC(=O)c1cccc(-c2cnc3c(NC=O)cc(-c4ccccc4F)cn23)c1`, the IC50 (H9c2) is reported as > 79 µM (inactive) and the EC50 (Melanocortin receptor 4) is reported as > 89.2 µM (inactive).
For `Brc1cccc(/C=N/Nc2nn[nH]n2)c1`, the IC50 (Coagulation factor XII) was > 50 µM (inactive).
For `CCn1cc(C(=O)O)c(=O)c2cc(F)c(N3CCN(C(=S)NC(=O)c4ccccc4Br)CC3)cc21`, the IC50 [3] was 4.66 µM (active).
With `C=CCn1c2ccccc2c2nnc(SCc3[nH]c(=O)[nH]c3C(=O)CCCCC(=O)OCC)nc21` the IC50 [4] was 2.19 µM (active).
In the case of `COc1ccc(/C=N/NC(=O)C(C)Sc2ccccn2)cc1[N+](=O)[O-]` (centres undefined), the IC50 [1] is reported as 6.02 µM (active) and the IC50 [2] is reported as 7.71 µM (active).
For `CC(=O)Nc1ccc(NC(=O)CCn2c(=S)oc3ccccc32)cc1`, the IC50 (Coagulation factor XII) was > 50 µM (inactive).
With `Cc1cccc(N(Cc2ccccc2)C(=O)Cc2ccc(S(=O)(=O)N3CCOCC3)s2)c1` the CC50 [5] was 22 µM (active) and the IC50 [4] was 18.6 µM (inactive).
